Data published in ChEMBL document CHEMBL3779887, “Robenidine Analogues as Gram-Positive Antibacterial Agents” (J Med Chem, 2016).
In brackets after ≈: the same amount, converted by molar mass. Activity calls are given as the source filed them. The calls are words filed in the database; no cut-off is given here.

Legend:
[1] = tested on: Staphylococcus aureus; assay: Bactericidal activity against […] Staphylococcus aureus clinical isolate USA300 assessed as log reduction in bacterial cell number at 8 times MIC after 8 hrs by time-kill curve analysis; format: functional
[2] = tested on: Staphylococcus aureus; assay: Bactericidal activity against methicillin-sensitive Staphylococcus aureus ATCC 49775 after 24 and 48 hrs; format: functional
[3] = Toxicity in po dosed female rabbit; format: organism-based, Oryctolagus cuniculus; settings: in vivo
[4] = Selectivity index, ratio of GI50 for human HEL299 cells to MIC50 for methicillin-resistant Staphylococcus aureus clinical isolate; format: functional, HEL 299
[5] = Metabolic stability in human liver microsomes assessed as compound loss after 60 mins; format: ADME; settings: read-out: Drug degradation
[6] = tested on: Staphylococcus aureus; assay: Antibacterial activity against methicillin-sensitive Staphylococcus aureus ATCC 29213 after 20 to 24 hrs in presence of 50% heat inactivated bovine serum
[7] = tested on: Staphylococcus aureus; assay: Inhibition of biofilm formation in methicillin-resistant Staphylococcus aureus assessed as log reduction at > 43.2 uM after 24 hrs by MBEC assay relative to control; format: functional
[8] = Metabolic stability in mouse liver microsomes assessed as compound loss after 60 mins; format: ADME; settings: read-out: Drug degradation
[9] = Lipophilicity, logD of the compound at pH 3; format: physicochemical; settings: buffer
[10] = tested on: Enterococcus; assay: Antibacterial activity against vancomycin-resistant Enterococcus after 20 to 24 hrs; format: functional
[11] = tested on: Pseudomonas aeruginosa; assay: Ratio of MIC90 for Pseudomonas aeruginosa ATCC 27853 to MIC90 for Pseudomonas aeruginosa ATCC 27853 in presence of polymyxin B nonapeptide; format: functional
[12] = Half life of compound in mouse liver microsomes; format: ADME
[13] = tested on: Staphylococcus aureus; assay: Bactericidal activity against methicillin-sensitive Staphylococcus aureus ATCC 29213 assessed as log reduction in bacterial cell number at 2 times MIC after 8 hrs by time-kill curve analysis; format: functional
[14] = tested on: Staphylococcus aureus; assay: Antibacterial activity against methicillin-sensitive Staphylococcus aureus ATCC 6538 after 20 to 24 hrs in presence of 50% heat inactivated bovine serum; format: functional
[15] = Selectivity index, ratio of GI50 for human HepG2 cells to MIC50 for methicillin-resistant Staphylococcus aureus clinical isolate; format: functional
[16] = Cytotoxicity against human HepG2 cells after 24 hrs by WST-1 based colorimetric assay; format: cell-based
[17] = tested on: Staphylococcus aureus; assay: Ratio of MBC for methicillin-sensitive Staphylococcus aureus ATCC 6538 to MIC90 for methicillin-sensitive Staphylococcus aureus ATCC 6538; format: functional
[18] = tested on: Escherichia coli; assay: Antibacterial activity against Escherichia coli ATCC 25922 after 20 to 24 hrs in presence of polymyxin B nonapeptide; format: functional
[19] = tested on: Staphylococcus aureus; assay: Ratio of MBC for methicillin-sensitive Staphylococcus aureus ATCC 29213 to MIC90 for methicillin-sensitive Staphylococcus aureus ATCC 29213; format: functional
[20] = Intrinsic clearance in mouse liver microsomes assessed per mg of protein; format: ADME; settings: read-out: CLH
[21] = tested on: Pseudomonas aeruginosa; assay: Antibacterial activity against Pseudomonas aeruginosa ATCC 27853 after 20 to 24 hrs; format: functional
[22] = tested on: Staphylococcus aureus; assay: Bactericidal activity against […] Staphylococcus aureus clinical isolate USA300 assessed as log reduction in bacterial cell number at 2 times MIC after 8 hrs by time-kill curve analysis; format: functional
[23] = tested on: Staphylococcus aureus; assay: Bactericidal activity against methicillin-sensitive Staphylococcus aureus ATCC 29213 assessed as log reduction in bacterial cell number at 4 times MIC after 8 hrs by time-kill curve analysis; format: functional
[24] = tested on: Staphylococcus aureus; assay: Ratio of MBC for methicillin-sensitive Staphylococcus aureus ATCC 49775 to MIC90 for methicillin-sensitive Staphylococcus aureus ATCC 49775; format: functional
[25] = Selectivity index, ratio of GI50 for human HEL299 cells to MIC50 for methicillin-sensitive Staphylococcus aureus clinical isolate; format: functional, HEL 299
[26] = tested on: Staphylococcus aureus; assay: Bactericidal activity against […] Staphylococcus aureus clinical isolate USA300 assessed as log reduction in bacterial cell number at 2 times MIC after 24 hrs by time-kill curve analysis; format: functional, organism-based
[27] = Toxicity in sheep erythrocytes assessed as hemolysis after 30 mins; format: cell-based, Ovis aries; settings: erythrocyte, 0.5 h
[28] = tested on: Staphylococcus aureus; assay: Bactericidal activity against Methicillin-sensitive Staphylococcus aureus ATCC 29213 assessed as log reduction in bacterial cell number at 8 times MIC after 24 hrs by time-kill curve analysis; format: functional, organism-based
[29] = tested on: Staphylococcus aureus; assay: Bactericidal activity against […] Staphylococcus aureus clinical isolate USA300 assessed as log reduction in bacterial cell number at 8 times MIC after 24 hrs by time-kill curve analysis; format: functional, organism-based
[30] = tested on: Staphylococcus aureus; assay: Bactericidal activity against […] Staphylococcus aureus clinical isolate USA300 assessed as log reduction in bacterial cell number at 4 times MIC after 24 hrs by time-kill curve analysis; format: functional, organism-based
[31] = tested on: Staphylococcus aureus; assay: Antibacterial activity against methicillin-sensitive Staphylococcus aureus ATCC 29213 after 20 to 24 hrs in presence of 50% heat inactivated bovine serum; remark: listed apart in the source
[32] = Intrinsic clearance in human liver microsomes assessed per mg of protein; format: ADME; settings: read-out: CLH
[33] = Half life of compound in human liver microsomes; format: ADME
[34] = tested on: Staphylococcus aureus; assay: Bactericidal activity against Methicillin-sensitive Staphylococcus aureus ATCC 29213 assessed as log reduction in bacterial cell number at MIC after 8 hrs by time kill curve analysis
[35] = tested on: Escherichia coli; assay: Ratio of MIC90 for Escherichia coli ATCC 25922 to MIC90 for Escherichia coli ATCC 25922 in presence of polymyxin B nonapeptide; format: functional
[36] = tested on: Pseudomonas aeruginosa; assay: Antibacterial activity against Pseudomonas aeruginosa ATCC 27853 after 20 to 24 hrs in presence of polymyxin B nonapeptide; format: functional
[37] = tested on: Staphylococcus aureus; assay: Bactericidal activity against Methicillin-sensitive Staphylococcus aureus ATCC 29213 assessed as log reduction in bacterial cell number at 2 times MIC after 24 hrs by time kill curve analysis; format: functional, organism-based
[38] = tested on: Staphylococcus aureus; assay: Inhibition of biofilm formation in methicillin-resistant Staphylococcus aureus after 24 hrs by MBEC assay; format: functional
[39] = tested on: Staphylococcus aureus; assay: Bactericidal activity against methicillin-sensitive Staphylococcus aureus ATCC 25923 after 24 and 48 hrs; format: functional
[40] = tested on: Staphylococcus aureus; assay: Antibacterial activity against methicillin-sensitive Staphylococcus aureus ATCC 29213 after 20 to 24 hrs in presence of 50% heat inactivated bovine serum; format: functional
[41] = tested on: Staphylococcus aureus; assay: Bactericidal activity against methicillin-sensitive Staphylococcus aureus ATCC 29213 assessed as log reduction in bacterial cell number at MIC after 8 hrs by time-kill curve analysis; format: functional
[42] = tested on: Staphylococcus aureus; assay: Ratio of MBC for methicillin-sensitive Staphylococcus aureus ATCC 25923 to MIC90 for methicillin-sensitive Staphylococcus aureus ATCC 25923; format: functional
[43] = tested on: Escherichia coli; assay: Antibacterial activity against Escherichia coli ATCC 25922 after 20 to 24 hrs; format: functional
[44] = tested on: Babesia microti; assay: Antiprotozoal activity against Babesia microti ATCC PRA-99 infected in BALB/c mouse assessed as suppression of parasitemia at 25 and 50 mg/kg, administered 4 times daily; format: functional
[45] = tested on: Staphylococcus aureus; assay: Bactericidal activity against […] Staphylococcus aureus clinical isolate USA300 assessed as log reduction in bacterial cell number at MIC after 24 hrs by time-kill curve analysis; format: functional, organism-based
[46] = tested on: Staphylococcus aureus; assay: Antibacterial activity against methicillin-resistant Staphylococcus aureus after 20 to 24 hrs; format: functional

SMILES: N=C(N/N=C/c1ccc(Cl)cc1)N/N=C/c1ccc(Cl)cc1 [ROBENIDINE]
- Activity [1]: >=4 log10CFU/ml
- MBC [2]: 5.4 µM (≈ 1.8 µg/mL)
- LD50 [3]: 2900 mg/kg
- Selectivity Index [4]: 2
- metabolised at 1 h [5]: < 15%
- MIC90 [6]: > 250 µM
- FC [7]: <=3
- metabolised at 1 h [8]: < 15%
- logD [9]: 3.7
- MIC [10]: 4.7 µM (≈ 1.57 µg/mL)
- Ratio [11]: 10
- half-life [12]: > 4.12 h
- Activity [13]: >=4 log10CFU/ml
- MIC90 [14]: > 250 µM
- Selectivity Index [15]: 2
- GI50 at 24 h [16]: 25.4 µM
- Ratio [17]: 1
- MIC90 [18]: 21.6 µM
- Ratio [19]: 1
- microsomal CLint [20]: < 7 µL/min/mg
- MIC [21]: > 400 µM
- Activity [22]: >=4 log10CFU/ml
- Activity [23]: >=4 log10CFU/ml
- Ratio [24]: 1
- Selectivity Index [25]: 2
- Activity [26]: inactive
- Activity [27]: >= 173 uM
- Activity [28]: inactive
- Activity [29]: inactive
- Activity [30]: inactive
- MIC90 [31]: > 250 µM
- microsomal CLint [32]: < 7 µL/min/mg
- half-life [33]: > 4.12 h
- Activity [34]: inactive
- Ratio [35]: 10
- MIC90 [36]: 21.6 µM
- Activity [37]: inactive
- INH [38]: >43.2 µM
- MBC [39]: 5.4 µM (≈ 1.8 µg/mL)
- MIC90 [40]: > 250 µM
- Activity [41]: >=4 log10CFU/ml
- Ratio [42]: 1
- MIC [43]: > 400 µM
- inhibition (INH) [44]: 100%
- Activity [45]: inactive
- MIC [46]: 8.1 µM (≈ 2.71 µg/mL)
